What follows are compounds tested against full-length recombinant human NEK7 (Homo sapiens (Human), UniProt Q8TDX7) (assay: NEK7 Enzymatic Assay). Conditions: casein substrate, [33P]-ATP, 2 hours at room temperature.
Format: biochemical
Method: Casein substrate (from bovine milk, hydrolyzed and partially dephosphorylated mixture of α, β and κ caseins, obtained from Sigma Aldrich, catalogue #C4765, diluted in distilled water to a final concentration of 1 mg/mL) and full-length recombinant human NEK7 (expressed by baculovirus in Sf9 insect cells using a N-terminal GST tag, obtained from SignalChem, catalogue #N09-10G, 0.1 μg/μL) were mixed in assay buffer (20 mM HEPES pH 7.5, 10 mM MgCl2, 1 mM EGTA, 0.02% Brij35, 0.02 mg/mL BSA, 0.1 mM Na3VO4, 2 mM DTT, 1% DMSO). Compounds of interest (serial 3-fold dilution in DMSO from 10 μM to 0.5 nM) or vehicle (1% DMSO) were dispensed into the kinase reaction mixture by Acoustic technology (Echo550; nanoliter range). After incubation at room temperature for 20 minutes, the kinase reaction was initiated by addition of [^33P]-ATP (specific activity 10 μCi/μL) and the mixture was incubated at room temperature for 2 hours. The reaction was then stopped by spotting the reaction mixture on strips of phosphocellulose P81 paper. Following washing, the radioactivity of the P81 paper was measured and kinase activity data were expressed as the percent remaining kinase activity in test samples compared to vehicle reactions. IC50 values and curve fits were obtained using Prism (GraphPad Software).

Sequence of full-length recombinant human NEK7 (Q8TDX7 whole entry): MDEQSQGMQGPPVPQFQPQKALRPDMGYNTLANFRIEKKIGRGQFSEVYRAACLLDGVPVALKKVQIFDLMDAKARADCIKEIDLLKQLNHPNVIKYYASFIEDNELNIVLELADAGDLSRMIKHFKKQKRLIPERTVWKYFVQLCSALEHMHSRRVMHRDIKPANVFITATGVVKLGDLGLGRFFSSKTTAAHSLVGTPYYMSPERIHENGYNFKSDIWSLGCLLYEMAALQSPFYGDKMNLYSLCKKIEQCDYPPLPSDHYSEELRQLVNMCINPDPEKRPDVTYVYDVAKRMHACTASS

COCCn1cc(-c2ccc(NC(=O)Nc3cc(C4(C(F)(F)F)CC4)on3)c3nccn23)c2c(N)ncnc21 [Example I-89, 1-(5-(4-amino-7-(2-methoxy-ethyl)-7H-pyrrolo[2,3-d]-pyrimidin-5-yl)imidazo[1,2-a]pyridin-8-yl)-3-(5-(1-(trifluoromethyl)cyclopropyl)-isoxazol-3-yl)urea] and Nc1ncnc2c1c(-c1ccc(NC(=O)Nc3cc(C4(C(F)(F)F)CC4)on3)c3nccn13)cn2C1CC(O)C1 (centres unmarked) [Example I-87, 1-(5-(4-amino-7-(3-hydroxy-cyclobutyl)-7H-pyrrolo[2,3-d]pyrimidin-5-yl)imidazo[1,2-a]pyridin-8-yl)-3-(5-(1-(trifluoromethyl)cyclopropyl)-isoxazol-3-yl)urea] cannot be ordered by IC50: < 0.2 µM for the first, < 0.2 µM for the second.

CN1CCN(Cc2ccc(NC(=O)Nc3ccc(-c4cn(C5CCC5)c5ncnc(N)c45)n4ccnc34)cc2C(F)(F)F)CC1 [Example I-129, 1-(5-(4-amino-7-cyclobutyl-7H-pyrrolo[2,3-d]pyrimidin-5-yl)imidazo[1,2-a]pyridin-8-yl)-3-(4-((4-methylpiperazin-1-yl)methyl)-3-(trifluorometh-yl)phenyl)urea] and CN1CCN(Cc2ccc(NC(=O)Nc3ccc(-c4cn(C5CCNCC5)c5ncnc(N)c45)n4ccnc34)cc2C(F)(F)F)CC1 [Example I-133, 1-(5-(4-amino-7-(piperidin-4-yl)-7H-pyrrolo[2,3-d]pyr-imidin-5-yl)imidazo[1,2-a]-pyridin-8-yl)-3-(4-((4-methyl-piperazin-1-yl)methyl)-3-(trifluoromethyl)phenyl)urea] cannot be ordered by IC50: < 0.2 µM for the first, < 0.2 µM for the second.

CN1CCN(Cc2ccc(NC(=O)Nc3ccc(-c4cn(C5CC5)c5ncnc(N)c45)c4c3OC(C)(C)C4)cc2C(F)(F)F)CC1 [Example I-60, 1-(4-(4-amino-7-cyclopropyl-7H-pyrrolo[2,3-d]pyrimidin-5-yl)-2,2-dimethyl-2,3-dihydrobenzofuran-7-yl)-3-(4-((4-methylpiperazin-1-yl)-methyl)-3-(trifluoromethyl)-phenyl)urea] and CN1CCC(Oc2ccc(NC(=O)Nc3ccc(-c4cn(C5CC5)c5ncnc(N)c45)c4c3OC(C)(C)C4)cc2C(F)(F)F)CC1 [Example I-61, 1-(4-(4-amino-7-cyclopropyl-7H-pyrrolo[2,3-d]pyrimidin-5-yl)-2,2-dimethyl-2,3-dihydrobenzofuran-7-yl)-3-(4-((1-methylpiperidin-4-yl)-oxy)-3-(trifluoromethyl)phen-yl)urea] cannot be ordered by IC50: > 2 µM for the first, > 2 µM for the second.

First: CC(C)(C)c1cc(NC(=O)Nc2ccc(-c3cn(C4CC4)c4ncnc(N)c34)n3ccnc23)n(-c2ccc(Cl)cc2)n1 [Example I-13, 1-(5-(4-amino-7-cyclopropyl-7H-pyrrolo[2,3-d]pyrimidin-5-yl)imidazo[1,2-a]pyridin-8-yl)-3-(3-(tert-butyl)-1-(4-chlorophenyl)-1H-pyrazol-5-yl)urea]
Second: Cc1ccc(-n2nc(C(C)(C)C)cc2NC(=O)Nc2ccc(-c3cn(C4CC4)c4ncnc(N)c34)n3ccnc23)cc1 [Example I-12, 1-(5-(4-amino-7-cyclopropyl-7H-pyrrolo[2,3-d]pyrimidin-5-yl)imidazo[1,2-a]pyridin-8-yl)-3-(3-(tert-butyl)-1-(p-tolyl)-1H-pyrazol-5-yl)urea]
The IC50 of the first is higher: 0.5 to 2 µM for the first, 0.2 to 0.5 µM for the second. The second is the more potent here.

First: CN1CCC(Oc2ccc(NC(=O)Nc3ccc(-c4cn(C5CC5)c5ncnc(N)c45)c4c3OCC4)cc2C(F)(F)F)CC1 [Example I-55, 1-(4-(4-amino-7-cyclopropyl-7H-pyrrolo[2,3-d]pyrimidin-5-yl)-2,3-dihydrobenzofuran-7-yl)-3-(4-((1-methylpiperidin-4-yl)oxy)-3-(trifluorometh-yl)phenyl)urea]
Second: CC1Cc2c(-c3cn(C4CC4)c4ncnc(N)c34)ccc(NC(=O)Nc3ccc(OC4CCN(C)CC4)c(C(F)(F)F)c3)c2O1 (centres unmarked) [Example I-58, 1-(4-(4-amino-7-cyclopropyl-7H-pyrrolo[2,3-d]pyrimidin-5-yl)-2-methyl-2,3-dihydro-benzofuran-7-yl)-3-(4-((1-methylpiperidin-4-yl)oxy)-3-(trifluoromethyl)phenyl)urea]
The IC50 of the first is lower: 0.2 to 0.5 µM for the first, > 2 µM for the second. The first is the more potent here.

CN1CCN(Cc2ccc(NC(=O)Nc3ccc(-c4cn(C5CC(O)C5)c5ncnc(N)c45)n4ccnc34)cc2C(F)(F)F)CC1 (centres unmarked) [Example I-132, 1-(5-(4-amino-7-(3-hydroxy-cyclobutyl)-7H-pyrrolo[2,3-d]pyrimidin-5-yl)imidazo[1,2-a]pyridin-8-yl)-3-(4-((4-meth-ylpiperazin-1-yl)methyl)-3-(trifluoromethyl)phenyl)urea] and CCN1CCN(Cc2ccc(NC(=O)Nc3ccc(-c4cn(C5CC5)c5ncnc(N)c45)n4ccnc34)cc2C(F)(F)F)CC1 [Example I-35, 1-(5-(4-amino-7-cyclopropyl-7H-pyrrolo[2,3-d]pyrimidin-5-yl)imidazo[1,2-a]pyridin-8-yl)-3-(4-((4-ethylpiperazin-1-yl)methyl)-3-(trifluorometh-yl)phenyl)urea] cannot be ordered by IC50: < 0.2 µM for the first, < 0.2 µM for the second.

First: CC1(C)Cc2c(-c3cn(C4CC4)c4ncnc(N)c34)ccc(NC(=O)Nc3cc(C4(C(F)(F)F)CC4)on3)c2O1 [Example I-59, 1-(4-(4-amino-7-cyclopropyl-7H-pyrrolo[2,3-d]pyrimidin-5-yl)-2,2-dimethyl-2,3-dihydrobenzofuran-7-yl)-3-(5-(1-(trifluoromethyl)cyclo-propyl)isoxazol-3-yl)urea]
Second: Nc1ncnc2c1c(-c1ccc(NC(=O)Nc3cc(C4(C(F)(F)F)CC4)on3)c3ocnc13)cn2C1CC1 [Example I-71, 1-(4-(4-amino-7-cyclopropyl-7H-pyrrolo[2,3-d]pyrimidin-5-yl)benzo[d]oxazol-7-yl)-3-(5-(1-(trifluoromethyl)cyclo-propyl)isoxazol-3-yl)urea]
The IC50 of the first is lower: 0.2 to 0.5 µM for the first, 0.5 to 2 µM for the second.

First: Nc1ncnc2c1c(-c1ccc(NC(=O)Nc3cc(C4(C(F)(F)F)CC4)no3)c3cnccc13)cn2C1CC1 [Example I-7, 1-(5-(4-amino-7-cyclopropyl-7H-pyrrolo[2,3-d]pyrimidin-5-yl)isoquinolin-8-yl)-3-(3-(1-(trifluoromethyl)cyclopropyl)-isoxazol-5-yl)urea]
Second: Nc1ncnc2c1c(-c1ccc(NC(=O)Nc3cc(C4(C(F)(F)F)CC4)no3)c3ccccc13)cn2C1CC1 [Example I-1, 1-(4-(4-amino-7-cyclopropyl-7H-pyrrolo[2,3-d]pyrimidin-5-yl)naphthalen-1-yl)-3-(3-(1-(trifluoromethyl)cyclopropyl)-isoxazol-5-yl)urea]
The IC50 of the first is lower: 0.5 to 2 µM for the first, > 2 µM for the second.

Compared with CC(C)(C)c1cc(NC(=O)Nc2ccc(-c3cn(C4CC4)c4ncnc(N)c34)c3cccnc23)on1 [Example I-2, 1-(5-(4-amino-7-cyclopropyl-7H-pyrrolo[2,3-d]pyrimidin-5-yl)quinolin-8-yl)-3-(3-(tert-butyl)isoxazol-5-yl)urea], CC(C)(c1cc(NC(=O)Nc2ccc(-c3cn(C4CC4)c4ncnc(N)c34)n3ccnc23)on1)C(F)(F)F [Example I-21, 1-(5-(4-amino-7-cyclopropyl-7H-pyrrolo[2,3-d]pyrimidin-5-yl)imidazo[1,2-a]pyridin-8-yl)-3-(3-(1,1,1-trifluoro-2-methylpropan-2-yl)isoxazol-5-yl)urea] is lower in IC50: > 2 µM for the first, < 0.2 µM for the second. The second is the more potent here.

Compared with CCN1CCC(Oc2ccc(NC(=O)Nc3ccc(-c4cn(C5CC5)c5ncnc(N)c45)c4c3OC(C)C4)cc2C(F)(F)F)CC1 (centres unmarked) [Example I-121, 1-(4-(4-amino-7-cyclopropyl-7H-pyrrolo[2,3-d]pyrimidin-5-yl)-2-methyl-2,3-dihydro-benzofuran-7-yl)-3-(4-((1-ethylpiperidin-4-yl)oxy)-3-(trifluoromethyl)phenyl)urea], CN1CCC(Oc2ccc(NC(=O)Nc3ccc(-c4cn(C5CC5)c5ncnc(N)c45)c4cnoc34)cc2C(F)(F)F)CC1 [Example I-70, 1-(4-(4-amino-7-cyclopropyl-7H-pyrrolo[2,3-d]pyrimidin-5-yl)benzo[d]isoxazol-7-yl)-3-(4-((1-methylpiperidin-4-yl)oxy)-3-(trifluoromethyl)-phenyl)urea] is lower in IC50: > 2 µM for the first, < 0.2 µM for the second.

Compared with Nc1ncnc2c1c(-c1cnc(NC(=O)Nc3cc(C4(C(F)(F)F)CC4)on3)c3nccn13)cn2C1CC1 [Example I-50, 1-(5-(4-amino-7-cyclopropyl-7H-pyrrolo[2,3-d]pyrimidin-5-yl)imidazo[1,2-a]pyrazin-8-yl)-3-(5-(1-(trifluoromethyl)-cyclopropyl)isoxazol-3-yl)urea], CN1CCC(n2cc(-c3ccc(NC(=O)Nc4cc(C5(C(F)(F)F)CC5)on4)c4nccn34)c3c(N)ncnc32)CC1 [Example I-95, 1-(5-(4-amino-7-(1-methyl-piperidin-4-yl)-7H-pyrrolo-[2,3-d]pyrimidin-5-yl)imid-azo[1,2-a]pyridin-8-yl)-3-(5-(1-(trifluoromethyl)cyclo-propyl)isoxazol-3-yl)urea] is lower in IC50: > 2 µM for the first, 0.2 to 0.5 µM for the second. The second is the more potent here.

With Nc1ncnc2c1c(-c1ccc(NC(=O)Nc3cc(C4(C(F)(F)F)CC4)on3)c3nc(C(F)(F)F)cn13)cn2C1CC1 [Example I-46, 1-(5-(4-amino-7-cyclopropyl-7H-pyrrolo[2,3-d]pyrimidin-5-yl)-2-(trifluoromethyl)-imidazo[1,2-a]pyridin-8-yl)-3-(5-(1-(trifluoromethyl)cyclo-propyl)isoxazol-3-yl)urea] the IC50 was > 2 µM.

From patent publication US20240158394A1, “NEK7 INHIBITORS” (Halia Therapeutics, Inc., priority 2022, published 2024)
